For 2 molecules, inhibition of growth results are on record in US20150313225A1.

SMILES strings stand for the structures. Read-outs that look alike come from different tables or passages of the source.

Holding throughout (type): cell-based
The test system of one assay is Alternaria solani. Description: Microtest against early blight caused by Alternaria solani (Alteso). The conditions noted are these: Alternaria solani, 168 h, solo product, read-out: Observed efficacy.
The test system of a further assay is Septoria tritici. Description: Microtest against leaf blotch on wheat caused by Septoria tritici (Septtr). The following applies: Zymoseptoria tritici, 168 h, solo product, read-out: Observed efficacy.
In another assay the test system is Phytophthora infestans. The experiment in a line: microbe, parasite or virus in culture. The conditions noted are these: Phytophthora infestans, 168 h, read-out: Observed efficacy.
For a further assay, the system named is Pyricularia oryzae. The experiment in a line: microbe, parasite or virus in culture. The following applies: Pyricularia oryzae, 168 h, read-out: Observed efficacy.
The test system of another assay is Botrytis cinerea. The experiment in a line: Microtiterplate test against the grey mold Botrytis cinerea (Botrci). The following applies: Botrytis cinerea, 168 h, solo product, read-out: Observed efficacy.
The test system of another assay is Leptosphaeria nodorum. Description: Microtest against wheat leaf spots caused by Leptosphaeria nodorum (Leptno). The conditions noted are these: Parastagonospora nodorum, 168 h, solo product, read-out: Observed efficacy; for inhibition of growth at […]: 0.00025 ppm.

As for `CC(O)(Cn1cncn1)c1ccc(Oc2ccc(F)cc2)cc1Cl` (stereo not shown) [I-18, 2-[2-chloro-4-(4-fluorophenoxy)phenyl]-1-(1,2,4-triazol-1-yl)propan-2-ol], the inhibition of growth at 0.004 ppm in the assay on Alternaria solani was determined as 0%. The figures for the inhibition of growth at 0.016 ppm in the assay on Alternaria solani (0.016 ppm) and with Pyricularia oryzae were 7% and 1%, respectively. Besides, in the assay on Septoria tritici (0.000016 ppm), the inhibition of growth at 1.6e-05 ppm was found to be 4%. Besides, in the assay on Septoria tritici (0.001 ppm), the inhibition of growth at 0.001 ppm worked out at 4%. Further, the inhibition of growth at 6.3e-05 ppm came out at 0% with Septoria tritici and 22% in the assay with Leptosphaeria nodorum (0.000063 ppm). The inhibition of growth at 16 ppm in the assay with Phytophthora infestans was 15%. The inhibition of growth at 63 ppm in the assay on Phytophthora infestans amounted to 19%. For the same molecule, the inhibition of growth at 1 ppm in the assay with Pyricularia oryzae was 5%. The inhibition of growth at […] is 13% in the assay with Botrytis cinerea (0.063 ppm), 44% in the assay on Botrytis cinerea (0.25 ppm) and 26% in the assay on Leptosphaeria nodorum.
For the molecule `CCC(Cn1cncn1)(OC)c1ccc(Oc2ccc(Cl)cc2)cc1Cl` (stereo not shown) [I-21, 1-[2-[2-chloro-4-(4-chlorophenoxy)phenyl]-2-methoxy-butyl]-1,2,4-triazole], the inhibition of growth at […] in the assay on Alternaria solani (0.00025 ppm) amounted to 2%; in the assay on Botrytis cinerea (0.063 ppm), 18%; in the assay with Leptosphaeria nodorum it was 12%. In the assay on Alternaria solani, the inhibition of growth at 0.004 ppm amounted to 5%. Further, the inhibition of growth at 4e-06 ppm in the assay with Septoria tritici (0.000004 ppm) was 17%. In addition, the inhibition of growth at 6.3e-05 ppm in the assay on Septoria tritici was 25%. Moreover, in the assay with Phytophthora infestans, the inhibition of growth at 63 ppm came out at 29%. In the assay on Pyricularia oryzae, the inhibition of growth at 0.016 ppm was determined as 1%. Also, in the assay with Leptosphaeria nodorum (0.001 ppm), the inhibition of growth at 0.001 ppm was determined as 22%.
